Results on seven compounds are retold here after patent US10336721B2, “Biaryltriazole inhibitors of macrophage migration inhibitory factor” (YALE UNIVERSITY, priority 2015, dated 2019).

Data set [1] has as its target T1, human MIF (Homo sapiens (Human), UniProt P14174). The experiment in a line: X-ray crystallography of complexes with human MIF. The data set is classed as binding. The method, then:
The solution was centrifuged at 13,000×g to remove precipitated compound and used to set up hanging-drop crystallization experiments. A reservoir of 2.0 M ammonium sulfate, 0.1 M Tris pH 7, and 3% isopropanol was added to the protein solution in a 1:1 ratio and stored at 20° C. Diffraction-quality crystals with a rod morphology grew within two weeks. The crystals were cryo-protected in 25% glycerol, 2.0M ammonium sulfate, 0.1 M Tris pH 7, and 3% isopropanol. Data was collected at the Advanced Photon Source remotely on the NE-CAT 24-ID-E beam line. […] Crystals were obtained by the hanging-drop method at 20° C. A reservoir of 2.2 M ammonium sulfate, 0.1 M Tris pH 7, and 3% isopropanol mixed in a 1:1 ratio with rhMIF (16 mg/mL) was used to produce 2 μL drops. […] Crystals were cryo-protected with 25% glycerol, 2.2 M ammonium sulfate, 0.1 M Tris pH 7, and 3% isopropanol. […] HKL2000 was used to index, integrate, and scale the MIF-3a data set in the […] space group and the MIF-3b in the P212121 space group. Phases were obtained by molecular replacement with PDB file 3U18 using the CCP4 and PHASER programs. Model building was performed in COOT with iterative restrained refinement with REFMAC.

Data set [2] is described as follows: Aqueous solubility. The format is physicochemical. The note with it: aqueous solvent (not further specified), μg compound/mL solvent.
Data set [3] deals with T1, human MIF. The experiment in a line: Inhibition of tautomerase activity of human MIF (HPP substrate). The format is biochemical. As to conditions: MIF tautomerase, HPP substrate, 50 nM MIF.

Values after ≈ are worked out from the molar mass of the structure shown.

As for `Oc1ccc(-n2cc(-c3ccc4ccccc4n3)nn2)cc1` [Example 3a, 4-(4-(quinolin-2-yl)-1H-1,2,3-triazol-1-yl)phenol], the “binding site from X-ray crystal structure of complex” value (“binding site” below) in data set [1] is reported as “confirm the binding of these inhibitors in the tautomerase active site”.

Take `COCCOc1ccc2nc(-c3cn(-c4ccc(O)cc4)nn3)ccc2c1` [Example 3b, 4-(4-(6-(2-methoxyethoxy)quinolin-2-yl)-1H-1,2,3-triazol-1-yl)phenol]: in data set [1], the “binding site” value is recorded as “confirm the binding of these inhibitors in the tautomerase active site”. Turning to `Oc1ccc(-n2cc(-c3ccc4cc(OCCOCCN5CCOCC5)ccc4n3)nn2)cc1` [Example 3v, 4-(4-(6-(2-(2-morpholinoethoxy)ethoxy)quinolin-2-yl)-1H-1,2,3-triazol-1-yl)phenol], the “binding site” value in data set [1] is “confirm the binding of these inhibitors in the tautomerase active site”. For the compound `NCCOCCOc1ccc2nc(-c3cn(-c4ccc(O)c(F)c4)nn3)ccc2c1` [Example 34, 4-(4-(6-(2-(2-Aminoethoxy)ethoxy)quinolin-2-yl)-1H-1,2,3-triazol-1-yl)-2-fluorophenol], the solubility in data set [2] came out at 9.1 µg/mL (≈ 22.2 µM). Still for that read-out and setting: next, `O=C(O)CCCOc1ccc2nc(-c3cn(-c4ccc(O)c(F)c4)nn3)ccc2c1` [Example 43, 4-((2-(1-(3-Fluoro-4-hydroxyphenyl)-1H-1,2,3-triazol-4-yl)quinolin-6-yl)oxy)butanoic acid]: 19.2 µg/mL (≈ 47 µM).

Turning to `O=C(O)COCCOc1ccc2nc(-c3cn(-c4ccc(O)c(F)c4)nn3)ccc2c1` [Example 44, 2-(2-((2-(1-(3-Fluoro-4-hydroxyphenyl)-1H-1,2,3-triazol-4-yl)quinolin-6-yl)oxy)ethoxy)acetic acid], the solubility in data set [2] worked out at 867 µg/mL (≈ 2040 µM). The compound also yielded a Ki in data set [3] of 45 nM. `O=C(O)COc1ccc2nc(-c3cn(-c4ccc(O)cc4)nn3)ccc2c1` [Example 45] gave a solubility in data set [2] of 364 µg/mL (≈ 1010 µM).

A word on the solubility: it is how much of the substance goes into solution per volume. High values mean a readily soluble substance, low ones a poorly soluble substance. By Ki is commonly meant a measure of affinity in units of concentration, obtained from inhibition or displacement.
